From BigSolDB 2.1

Nc1ccc(S(=O)(=O)Nc2ccc(Cl)nn2)cc1
solubility (mole fraction)
Settings	in 1,4-dioxane	in acetone	in acetonitrile	in ethanol	in ethyl acetate	in isopropanol	in methanol	in n-butanol	in water
283.15 K	0.0994	0.0647	0.0187	0.00381	0.0135	0.0031	0.00473	0.00335	2.25e-05
288.15 K	0.106	0.0715	0.0193	0.00432	0.0141	0.00345	0.00513	0.00372	3.31e-05
293.15 K	0.116	0.0804	0.0202	0.00484	0.0152	0.00382	0.00569	0.00421	4.39e-05
298.15 K	0.129	0.0908	0.0213	0.00543	0.0165	0.00429	0.00627	0.00474	5.9e-05
303.15 K	0.143	0.102	0.0224	0.00616	0.0179	0.00476	0.00696	0.00531	7.53e-05
308.15 K	0.159	0.116	0.0239	0.00689	0.0198	0.00538	0.00779	0.00596	9.52e-05
313.15 K	0.179	0.131	0.0258	0.00777	0.0219	0.00614	0.00867	0.00676	0.000119
318.15 K	0.204	0.147	0.0283	0.00879	0.0244	0.00702	0.00966	0.00768	0.000149
323.15 K	0.235	0.165	0.0312	0.0101	0.0268	0.00792	0.0109	0.00867	0.000184
